According to article PMC11784839, “Monoaminergic neurotransmitters are bimodal effectors of tau aggregation” (Science Advances, 2025):

Target: tau (Homo sapiens, UniProt P10636)
Assay: MCE Phenols Library screening, tau biosensor cell seeding assay (AvZ)
Type: cell-based
Conditions: for AvZ (average z score of seeding, SDs from the mean level of seeding): 10 μM phenol in cell cultures, AD brain homogenate preincubated 16 hours, two biological replicates, positive = catalyzes seeding, negative = inhibits; for Z repl 1 / Z Repl 2: Z score; for Z repl 1 / raw data 1: replicate 1; for Z Repl 2 / raw data 2: replicate 2
[1] = average puncta of the two replicates
[2] = average Z score of the two replicates, tau seeding
[3] = average Z score of the two replicates, MCE Phenols Library screen
[4] = average Z score of the two replicates, tau biosensor seeding, MCE Phenols Library screen
[5] = average Z score of two replicates, Phenols Library screen

tau, sequence (P10636 623-695 limits assumed): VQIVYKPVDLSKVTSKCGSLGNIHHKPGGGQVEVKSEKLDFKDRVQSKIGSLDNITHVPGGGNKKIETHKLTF

AvZ (average z score of seeding, SDs from the mean level of seeding) | Z repl 1 | Z Repl 2 | av puncta (average of raw data 1 and 2) | raw data 1 (puncta) | raw data 2 (puncta) | av puncta [1] | av Z [2] | av Z [3] | av Z [4] | av Z [5] | raw data 1 (raw puncta) | raw data 2 (raw puncta) | AvZ (average z score of seeding, SDs from the mean level of seeding) (listed as 6-Hydroxy melatonin) | Compound
– | -0.171 | -0.979 | – | 24297.8 | 2305.25 | 13301.5 | – | -0.575 | – | – | – | – | – | O=c1cc(-c2ccc(O)c(O)c2)oc2cc(O[C@@H]3O[C@H](CO)[C@@H](O)[C@H](O)[C@H]3O)c(O)c(O)c12 [6-Hydroxyluteolin 7-glucoside]
-0.003 | 0.345 | -0.35 | 19759.2 | 30495.8 | 9022.73 | – | – | – | – | – | – | – | −0.003 | COc1cc2c(CCNC(C)=O)c[nH]c2cc1O [6-Hydroxymelatonin]
– | 0.072 | -0.073 | 19598.9 | 27207.6 | 11990.2 | – | – | – | – | -0.001 | – | – | – | COc1ccc(-c2cc(=O)c3c(O)cc(OC)cc3o2)cc1 [7,4'-Di-O-methylapigenin]
– | 0.712 | -0.135 | 23112.9 | 34900.1 | 11325.8 | – | 0.289 | – | – | – | – | – | – | O=c1cc(-c2ccc(O)cc2)oc2cc(O)ccc12 [7,4'-Dihydroxyflavone]
– | 1.412 | 0.928 | 32989.2 | 43302.3 | 22676 | – | – | – | 1.17 | – | – | – | – | O=c1cc(-c2ccccc2)oc2c(O)c(O)ccc12 [7,8-Dihydroxyflavone]
– | -0.015 | -0.619 | – | – | – | 16165.1 | – | -0.317 | – | – | 26174.7 | 6155.6 | – | O=c1ccoc2cc(O)ccc12 [7-Hydroxy-4H-chromen-4-one]
– | -0.784 | -0.654 | – | 16933.5 | 5782.42 | 11358 | – | -0.719 | – | – | – | – | – | CC(C)=CCc1c(O)c(CC=C(C)C)c2oc3c(O)cccc3c(=O)c2c1O [8-Deoxygartanin]
-0.236 | 0.065 | -0.537 | – | – | – | 17076 | – | – | – | – | 27124.2 | 7027.77 | – | CCCCCCC[C@H](O)CC(=O)CCc1ccc(O)c(OC)c1 [8-Gingerol]
– | -0.103 | 0.252 | 20281.2 | 25106.7 | 15455.8 | – | – | – | – | 0.074 | – | – | – | COc1c2ccoc2c(O)c2oc(=O)ccc12 [8-Hydroxybergapten]
-0.619 | -0.921 | -0.318 | – | 15293.5 | 9373.24 | 12333.4 | – | – | – | – | – | – | – | CCCCCCCCC[C@H](O)CC(=O)CCc1ccc(O)c(OC)c1 [10-Gingerol]
-0.507 | – | – | – | – | – | – | – | – | – | – | – | – | – | CCCCCCCCC/C=C/C(=O)CCc1ccc(O)c(OC)c1 [10-Shogaol]
– | 0.362 | 0.799 | 25999.8 | 30700.9 | 21298.7 | – | 0.581 | – | – | – | – | – | – | C=C(C)[C@H](CC=C(C)C)Cc1c(O)cc(OC)c2c1O[C@H](c1ccc(O)cc1OC)CC2=O [(2S)-2'-Methoxykurarinone]
– | 0.313 | 1.018 | 26875.3 | 30111.3 | 23639.2 | – | 0.666 | – | – | – | – | – | – | COc1cc(C[C@@H](CO)[C@H](CO)Cc2ccc(O)c(OC)c2)ccc1O [(+)-Secoisolariciresinol]
– | 0.447 | -0.597 | 19047.3 | 31709.7 | 6384.95 | – | – | – | – | -0.075 | – | – | – | Oc1ccc([C@H]2COc3cc(O)ccc3C2)cc1 [(-)-(S)-Equol]
– | -0.615 | -1.07 | 10148.5 | 18961.3 | 1335.66 | – | – | -0.843 | – | – | – | – | – | O=C(O[C@@H]1Cc2c(O)cc(O)cc2O[C@H]1c1ccc(O)c(O)c1)c1cc(O)c(O)c(O)c1 [(-)-Catechin gallate]
– | -0.198 | 0.182 | 19340.4 | 23970.4 | 14710.3 | – | – | – | – | -0.008 | – | – | – | Oc1ccc([C@H]2Oc3cc(O)cc(O)c3C[C@H]2O)cc1 [(-)-Epiafzelechin]
– | -1.161 | -0.434 | 10272.2 | 12408.5 | 8135.9 | – | – | -0.797 | – | – | – | – | – | O=C(O[C@@H]1Cc2c(O)cc(O)cc2O[C@@H]1c1ccc(O)c(O)c1)c1cc(O)c(O)c(O)c1 [(-)-Epicatechin gallate]
– | -2.044 | – | 1025.27 | 1812.01 | 238.519 | – | – | -1.608 | – | – | – | – | – | O=C(O[C@@H]1Cc2c(O)cc(O)cc2O[C@@H]1c1cc(O)c(O)c(O)c1)c1cc(O)c(O)c(O)c1 [(-)-Epigallocatechin Gallate]

The next lines start with the molecule.

Compound | AvZ (average z score of seeding, SDs from the mean level of seeding) | Z repl 1 | Z Repl 2 | av puncta (average of raw data 1 and 2) | raw data 1 (puncta) | raw data 2 (puncta) | av puncta [1] | av Z [2] | av Z [3] | av Z [4] | av Z [5] | raw data 1 (raw puncta) | raw data 2 (raw puncta) | AvZ (average z score of seeding, SDs from the mean level of seeding) (listed as 6-Hydroxy melatonin)
CC(=O)c1ccc(O)cc1C [4?-Hydroxy-2?-methylacetophenone] | 0.123 | 0.511 | -0.266 | 21207.9 | 32488.1 | 9927.81 | – | – | – | – | – | – | – | –
Oc1cc2cc[nH]c2cc1O [5,6-Dihydroxyindole] | -0.59 | -0.206 | -0.973 | – | 23871.3 | 2376.21 | 13123.8 | – | – | – | – | – | – | –
Cc1cc(=O)oc2cc(O)cc(O)c12 [5,7-Dihydroxy-4-methylcoumarin] | – | 0.623 | -0.301 | 21685.4 | 33822.8 | 9548.03 | – | 0.161 | – | – | – | – | – | –
O=c1ccoc2cc(O)cc(O)c12 [5,7-Dihydroxychromone] | – | -1.184 | -0.309 | – | 12131.6 | 9469.43 | 10800.5 | – | -0.746 | – | – | – | – | –
COc1cc(OC)c2c(=O)cc(-c3ccc(O)c(O)c3)oc2c1 [5,7-Dimethoxyluteolin] | – | 1.798 | 1.915 | 40573.2 | 47932.5 | 33213.9 | – | – | – | 1.856 | – | – | – | –
Nc1ccc(O)c(C(=O)O)c1 [5-Aminosalicylic Acid, reference compound] | -0.176 | -0.552 | 0.2 | 17310.9 | 19721.7 | 14900.2 | – | – | – | – | – | – | – | –
COc1ccc(-c2cc(=O)c3c(O)c(OC)c(OC)cc3o2)cc1OC [5-Desmethylsinensetin] | – | 0.14 | -0.394 | 18294 | 28033.5 | 8554.47 | – | – | – | – | -0.127 | – | – | –
COc1cc(/C=C/C(=O)O)cc(O)c1O [5-Hydroxyferulic acid] | -0.968 | -0.814 | -1.121 | 8685.03 | 16579.9 | 790.19 | – | – | – | – | – | – | – | –
O=c1cc(-c2ccccc2)oc2cccc(O)c12 [5-Hydroxyflavone] | – | -1.378 | -0.72 | 7440.82 | 9800.36 | 5081.28 | – | – | -1.049 | – | – | – | – | –
Oc1ccc2[nH]ccc2c1 [5-Hydroxyindole] | -0.616 | -0.683 | -0.549 | – | 18144.2 | 6901.21 | 12522.7 | – | – | – | – | – | – | –
COc1ccc(O)c(C(=O)O)c1 [5-Methoxysalicylic acid] | 0.136 | -0.389 | 0.66 | 20749.6 | 21680.5 | 19818.6 | – | – | – | – | – | – | – | –
COc1cc2c(=O)c(-c3ccc(O)cc3)coc2cc1O[C@@H]1O[C@H](COC(C)=O)[C@@H](O)[C@H](O)[C@H]1O [6''-O-Acetylglycitin] | – | -0.368 | -0.234 | – | – | – | 16095.7 | – | -0.301 | – | – | 21928.1 | 10263.4 | –
CCCCC[C@H](O)CC(=O)CCc1ccc(O)c(OC)c1 [6-Gingerol] | 0.629 | – | – | – | – | – | – | – | – | – | – | – | – | –
O=c1ccc2cc(O)ccc2o1 [6-Hydroxycoumarin] | – | -0.422 | 0.434 | 19344 | 21288.5 | 17399.5 | – | – | – | – | 0.006 | – | – | –
CC(C)=CCc1c(O)cc2c(c1O)C(=O)C[C@@H](c1ccc(O)cc1)O2 [(2S)-6-Prenylnaringenin] | – | 0.006 | 0.268 | 21024 | 26415.8 | 15632.3 | – | 0.137 | – | – | – | – | – | –
Oc1cc(O)c2c(c1)O[C@H](c1cc(O)c(O)c(O)c1)[C@@H](O)C2 [(+)-Gallocatechin] | – | -0.679 | -1.082 | 9700.21 | 18193.2 | 1207.17 | – | – | -0.881 | – | – | – | – | –
